pIC50: −log10 of the molar value.
How the values were obtained:
[1] = target: 11-beta-hydroxysteroid dehydrogenase 1 (Rattus norvegicus) (UniProt P16232); test: Percent inhibition against 11-beta-hydroxysteroid dehydrogenase 1 of wistar rat liver cytosol at 10 uM was determined using [3H]cortisone
[2] = target: T1, 11-beta-hydroxysteroid dehydrogenase type 2 (Rattus norvegicus) (UniProt P50233); test: (§1) Percent inhibition against 11-beta-hydroxysteroid dehydrogenase 2 of wistar rat kidney at 10 uM was determined using [3H]cortisol
T1 sequence (whole entry): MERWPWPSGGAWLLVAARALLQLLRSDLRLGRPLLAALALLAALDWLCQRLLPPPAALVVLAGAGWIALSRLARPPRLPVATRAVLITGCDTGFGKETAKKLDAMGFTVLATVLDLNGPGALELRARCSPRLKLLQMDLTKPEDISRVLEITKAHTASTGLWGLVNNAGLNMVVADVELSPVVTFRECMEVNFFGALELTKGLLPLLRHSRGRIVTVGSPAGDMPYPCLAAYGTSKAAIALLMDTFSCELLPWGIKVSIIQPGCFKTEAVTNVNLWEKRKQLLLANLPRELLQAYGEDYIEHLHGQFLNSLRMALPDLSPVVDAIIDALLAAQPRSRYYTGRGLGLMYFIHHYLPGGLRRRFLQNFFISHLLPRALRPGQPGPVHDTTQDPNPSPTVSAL

[3] = target: T2, 11-beta-hydroxysteroid dehydrogenase type 2 (Rattus norvegicus, UniProt P50233); test: as §1
T2 sequence (P50233 whole entry): T1 sequence (whole entry)

Chain of 11-beta-hydroxysteroid dehydrogenase 1 (Rattus norvegicus) (P16232 whole entry, looked up): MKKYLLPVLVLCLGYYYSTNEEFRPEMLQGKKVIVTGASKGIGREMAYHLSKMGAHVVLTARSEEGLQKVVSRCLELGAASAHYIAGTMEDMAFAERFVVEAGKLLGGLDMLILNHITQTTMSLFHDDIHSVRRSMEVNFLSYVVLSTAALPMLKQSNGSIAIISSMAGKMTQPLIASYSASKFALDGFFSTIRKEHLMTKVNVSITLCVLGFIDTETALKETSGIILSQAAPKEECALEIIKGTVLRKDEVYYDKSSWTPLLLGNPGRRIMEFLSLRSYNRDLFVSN

Compound `CC1(C)C2CC[C@]3(C)C(C(=O)C=C4[C@@H]5C[C@@](C)(C(=O)NC6CCOC6=O)CC[C@]5(C)CC[C@]43C)[C@@]2(C)CC[C@@H]1O` (some centres not stated) has an inhibition [1] of 71% and an inhibition [2] of 25%.

`CC1(C)[C@@H](O)CC[C@]2(C)[C@H]3C(=O)C=C4[C@@H]5C[C@@](C)(C(=O)O)CC[C@]5(C)CC[C@@]4(C)[C@]3(C)CC[C@@H]12` gave an inhibition [1] of 85% and an inhibition [2] of 101%.

`CCOC(=O)[C@H](C)NC(=O)[C@@]1(C)CC[C@]2(C)CC[C@]3(C)C(=CC(=O)C4[C@@]5(C)CC[C@H](O)C(C)(C)C5CC[C@]43C)[C@@H]2C1` (some centres not stated) was tested, and the inhibition [1] was 25% and the inhibition [2] was 35%.

Work on `CC1(C)C2CC[C@]3(C)C(C(=O)C=C4[C@@H]5C[C@@](C)(C(=O)NCCCCCO)CC[C@]5(C)CC[C@]43C)[C@@]2(C)CC[C@@H]1O` (some centres not stated) yielded an inhibition [1] of 88% and an inhibition [2] of 98%.

In the case of `CC1(C)C2CC[C@]3(C)C(C(=O)C=C4[C@@H]5C[C@@](C)(C(=O)NC6CC6)CC[C@]5(C)CC[C@]43C)[C@@]2(C)CC[C@@H]1O` (some centres not stated), the inhibition [1] was 90% and the inhibition [2] was 103%.

Work on `CC1(C)C2CC[C@]3(C)C(C(=O)C=C4[C@@H]5C[C@@](C)(C(=O)NCCN6CCOCC6)CC[C@]5(C)CC[C@]43C)[C@@]2(C)CC[C@@H]1O` (some centres not stated) yielded an inhibition [1] of 19% and an inhibition [2] of 66%.

For `CC1(C)C2CC[C@]3(C)C(C(=O)C=C4[C@@H]5C[C@@](C)(C(=O)NCCO)CC[C@]5(C)CC[C@]43C)[C@@]2(C)CC[C@@H]1O` (some centres not stated), the pIC50 [3] was 11.40, the inhibition [1] was 36% and the inhibition [2] was 92%.

For `CC1(C)C2CC[C@]3(C)C(C(=O)C=C4[C@@H]5C[C@@](C)(C(=O)NN6CCOCC6)CC[C@]5(C)CC[C@]43C)[C@@]2(C)CC[C@@H]1O` (some centres not stated), the inhibition [1] was 34% and the inhibition [2] was 20%.

Reference: ChEMBL document CHEMBL1146657, “A novel 18 beta-glycyrrhetinic acid analogue as a potent and selective inhibitor of 11 beta-hydroxysteroid dehydrogenase 2” (Bioorg Med Chem Lett, 2004)
